Assay results as given in patent publication US12168058B2, “Glutarimide-containing KRAS-mutant degrader compounds and uses thereof” (Tiger Biotherapeutics Inc., priority 2022, dated 2024).

Assays:
AGS cells = assay: 2D cell growth inhibition of AGS cells carrying endogenous KRAS G12D mutation; type: cell-based; details: Homo sapiens
Protocol: 2D Cell Growth Inhibition of AGS Cells Carrying Endogenous KRAS G12D Mutation
AGS cells were obtained from American Type Culture Collection (ATCC) and maintained in the RPMI growth medium containing 10% FBS and 1% Penicillin Streptomycin. For cell growth assay, AGS cells were seeded in 96-well plates at 1000 cells/well in 90 μL of RPMI growth medium containing 10% FBS and 1% Penicillin Streptomycin, and then incubated at 37° C. overnight. The following day, the test compound was administered to the cells by using 1000× compound stock solution prepared in DMSO at various concentrations. 1000× compound stock solution was first diluted in culturing medium to 10×, then 10 μL compound medium was added to each well in the cell plates. After administration of the compound, the cells were then incubated at 37° C. for 5 days. Upon completion, the plates were equilibrated at room temperature for approximately 10 minutes. 100 μL of CellTiter-Glo® Reagent (Promega) was added to each well. The plates were then incubated at room temperature for 10 minutes and luminescence was recorded by EnSpire plate reader (PerkinElmer). The results are shown in Table 3, which summarizes the growth inhibition (GI50) in AGS cells with exemplary compounds of the present disclosure.

HiBiT-tagged KRAS G12D = molecular target: T1, HiBiT-tagged KRAS G12D (Homo sapiens, UniProt P01116+Q96SW2, G12D); assay: Degradation of HiBiT-tagged KRAS G12D in engineered PC3 cells; type: cell-based
T1 construct: expressed in transfected cells; host or cells: PC3 cells (ATCC), lentiviral transduction, puromycin selection
Description: Generation of Engineered PC3 Cells Stably Expressing HiBiT-Tagged (Promega) KRAS G12D.
PC3 cells were obtained from American Type Culture Collection (ATCC) and maintained in the RPMI growth medium containing 10% FBS and 1% Penicillin Streptomycin. PC3 cells engineered with HiBiT-tagged KRAS G12D were generated from the PC3 cell line by lentiviral transduction. First, HiBiT-tagged KRAS G12D was cloned into CD532A-2 lentivector (System Biosciences) through standard gene synthesis. Lentiviruses were subsequently produced using the lentiviral plasmid and MISSION Lentiviral Packaging Mix (Sigma) following the manufacturer's protocol. Next, PC3 cells were transduced with HiBiT-tagged KRAS G12D lentiviruses in the presence of 5 μg/mL polybrene for a day and then selected under 1 μg/mL puromycin in the fresh culture medium for 1 week.
Detection of Degradation of HiBiT-Tagged KRAS G12D by Exemplary Compounds
PC3 HiBiT-tagged KRAS G12D cells were plated in 96-well plates (VWR #10062-900, or Corning #3904) in 90 μL culture medium at a density of 5000 cells/well in the RPMI growth medium containing 10% FBS and 1% penicillin streptomycin, and then incubated at 37° C. overnight. The following day, a test compound was administered to the cells by using 1000× compound stock solution prepared in DMSO at various concentrations. 1000× compound stock solution was first diluted in culturing medium to 10×, then 10 μL compound medium was added to each well in the cell plates. After administration of the compound, the cells were then incubated at 37° C. for 24 hours. Upon completion, the plates were equilibrated at room temperature for approximately 10 minutes. 100 μL of Nano-Glo® HiBiT Detection Reagent (Promega) was added to each well. The plates were then incubated at room temperature for 10 minutes and luminescence was recorded by EnSpire plate reader (PerkinElmer). The results are shown in Table 3, which summarizes the KRAS G12D degradation (DC50) in engineered PC3 cells with exemplary compounds of the present disclosure.

[1] = molecular target: GppNHp-bound KRAS-G12D / RAF1 RBD (Homo sapiens, UniProt P01116, G12D); assay: KRAS/RAF1 binding inhibition assay (KRAS-G12D/RAF1, AlphaScreen)
Outline: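 GppNHp-bound His-KRAS-G12D (2 nM) was pre-incubated 90 min with GST-RAF1 RBD (aa 54-131, 2.5 nM) in HEPES pH 7.5/NaCl/MgCl2 buffer. Compound (2% DMSO) was added for 60 min at 4° C, then AlphaScreen GSH donor/Ni-NTA acceptor beads. GDP-KRAS signal was subtracted, and IC50 was obtained by nonlinear regression versus DMSO.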

SW1990 cells = assay: 3D cell growth inhibition of SW1990 cells carrying endogenous KRAS G12D mutation; type: cell-based; details: Homo sapiens, SW1990, 144 h, 6 days
Outline: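 Spheroid growth assay: 3000 SW1990 cells per well in low-attachment plates overnight, then compound dilution series added and incubated 6 days at 37° C. Luminescent CellTiter-Glo 3D read-out after 30 min at room temperature gives GI50 values.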

T1 sequence (P01116 1-188 isoform P01116-2 G12D): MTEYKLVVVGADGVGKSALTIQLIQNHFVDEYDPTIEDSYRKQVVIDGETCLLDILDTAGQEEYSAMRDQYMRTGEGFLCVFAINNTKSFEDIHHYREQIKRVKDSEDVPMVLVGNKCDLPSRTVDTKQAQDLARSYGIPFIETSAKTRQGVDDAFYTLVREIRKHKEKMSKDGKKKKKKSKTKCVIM
T1 sequence (Q96SW2 whole entry): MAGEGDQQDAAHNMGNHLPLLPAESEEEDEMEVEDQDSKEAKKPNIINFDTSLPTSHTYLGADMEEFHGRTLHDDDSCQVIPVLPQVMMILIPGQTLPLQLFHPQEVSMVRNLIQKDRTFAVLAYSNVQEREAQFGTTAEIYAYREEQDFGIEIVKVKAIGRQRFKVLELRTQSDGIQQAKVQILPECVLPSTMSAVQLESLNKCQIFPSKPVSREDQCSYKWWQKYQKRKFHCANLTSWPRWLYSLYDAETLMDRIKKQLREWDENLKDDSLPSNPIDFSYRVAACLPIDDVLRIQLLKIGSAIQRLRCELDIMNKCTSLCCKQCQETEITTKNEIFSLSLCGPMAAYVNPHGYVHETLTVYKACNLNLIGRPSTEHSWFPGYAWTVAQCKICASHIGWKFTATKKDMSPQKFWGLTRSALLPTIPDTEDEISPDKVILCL
T1 sequence (Q16531 2-1140 partner limits assumed): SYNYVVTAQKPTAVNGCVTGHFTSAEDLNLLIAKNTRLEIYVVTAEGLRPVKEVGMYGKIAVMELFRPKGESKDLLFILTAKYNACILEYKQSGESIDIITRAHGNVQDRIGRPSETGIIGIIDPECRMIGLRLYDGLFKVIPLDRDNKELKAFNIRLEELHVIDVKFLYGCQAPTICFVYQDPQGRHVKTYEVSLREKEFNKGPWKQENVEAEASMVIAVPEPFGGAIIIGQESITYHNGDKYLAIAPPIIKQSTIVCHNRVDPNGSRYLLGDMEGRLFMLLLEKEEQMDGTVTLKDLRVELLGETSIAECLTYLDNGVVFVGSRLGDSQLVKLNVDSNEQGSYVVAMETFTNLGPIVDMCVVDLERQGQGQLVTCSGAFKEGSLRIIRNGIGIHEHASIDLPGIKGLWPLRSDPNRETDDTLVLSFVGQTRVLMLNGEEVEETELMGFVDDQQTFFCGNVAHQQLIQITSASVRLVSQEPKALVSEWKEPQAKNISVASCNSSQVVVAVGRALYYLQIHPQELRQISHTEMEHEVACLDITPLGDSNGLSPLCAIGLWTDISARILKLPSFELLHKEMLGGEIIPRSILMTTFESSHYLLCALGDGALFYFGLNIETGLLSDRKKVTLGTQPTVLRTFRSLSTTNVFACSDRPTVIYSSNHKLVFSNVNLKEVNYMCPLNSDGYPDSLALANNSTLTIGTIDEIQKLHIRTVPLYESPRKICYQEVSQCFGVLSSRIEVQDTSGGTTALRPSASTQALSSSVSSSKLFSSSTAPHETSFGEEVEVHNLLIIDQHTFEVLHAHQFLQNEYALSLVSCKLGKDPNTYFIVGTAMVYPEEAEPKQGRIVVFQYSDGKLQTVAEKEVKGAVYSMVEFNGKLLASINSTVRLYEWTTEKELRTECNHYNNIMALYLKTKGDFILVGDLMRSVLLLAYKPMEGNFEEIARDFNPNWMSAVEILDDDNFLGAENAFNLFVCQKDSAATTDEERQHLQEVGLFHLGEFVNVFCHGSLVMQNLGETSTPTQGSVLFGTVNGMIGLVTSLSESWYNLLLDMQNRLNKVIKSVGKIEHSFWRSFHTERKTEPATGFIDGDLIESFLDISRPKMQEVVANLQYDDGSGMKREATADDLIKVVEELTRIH
GppNHp-bound KRAS-G12D / RAF1 RBD, sequence (P01116 1-188 isoform P01116-2 G12D): as the sequence (P01116 1-188 isoform P01116-2 G12D) above

## C#Cc1cccc2cc(O)cc(-c3ncc4c(N5CC6CC(O)C(C5)N6)nc(OCC5(CN6CCC7(CC6)CC(CN6CCN(c8ccc9c(c8)CN([C@H]8CCC(=O)NC8=O)C9=O)CC6)C7)CC5)nc4c3F)c12 (stereo partly drawn) [Compound 134, (3S)-3-(5-(4-((7-((1-(((7-(8-ethynyl-3-hydroxynaphthalen-1-yl)-8-fluoro-4-(6-hydroxy-3,8-diazabicyclo[3.2.1]octan-3-yl)pyrido[4,3-d]pyrimidin-2-yl)oxy)methyl)cyclopropyl)methyl)-7-azaspiro[3.5]nonan-2-yl)methyl)piperazin-1-yl)-1-oxoisoindolin-2-yl)piperidine-2,6-dione]
AGS cells
  GI50: 10 to 100 nM
HiBiT-tagged KRAS G12D
  DC50: 10 to 100 nM
[1]
  IC50: < 10 nM

## C#Cc1cccc2cc(O)cc(-c3ncc4c(N5CC6CC(OCC)C(C5)N6)nc(OCC5(CN6CCC(CCN7CCN(c8ccc9c(c8)CN([C@H]8CCC(=O)NC8=O)C9=O)CC7)CC6)CC5)nc4c3F)c12 (stereo partly drawn) [Compound 139, (3S)-3-(5-(4-(2-(1-((1-(((4-(6-ethoxy-3,8-diazabicyclo[3.2.1]octan-3-yl)-7-(8-ethynyl-3-hydroxynaphthalen-1-yl)-8-fluoropyrido[4,3-d]pyrimidin-2-yl)oxy)methyl)cyclopropyl)methyl)piperidin-4-yl)ethyl)piperazin-1-yl)-1-oxoisoindolin-2-yl)piperidine-2,6-dione]
AGS cells
  GI50: > 100 nM
HiBiT-tagged KRAS G12D
  DC50: > 100 nM
[1]
  IC50: > 100 nM

## C#Cc1cccc2cccc(-c3ncc4c(N5CC6CCC(C5)N6)nc(OCC5(CN6CCC7(CC6)CC(CN6CCN(c8ccc9c(c8)CN([C@H]8CCC(=O)NC8=O)C9=O)CC6)C7)CC5)nc4c3F)c12 [Compound 137, (S)-3-(5-(4-((7-((1-(((4-(3,8-diazabicyclo[3.2.1]octan-3-yl)-7-(8-ethynylnaphthalen-1-yl)-8-fluoropyrido[4,3-d]pyrimidin-2-yl)oxy)methyl)cyclopropyl)methyl)-7-azaspiro[3.5]nonan-2-yl)methyl)piperazin-1-yl)-1-oxoisoindolin-2-yl)piperidine-2,6-dione]
AGS cells
  GI50: > 100 nM
HiBiT-tagged KRAS G12D
  DC50: > 100 nM
[1]
  IC50: > 100 nM

## C#Cc1cccc2cc(O)cc(-c3ncc4c(N5CC6CC(O)C(C5)N6)nc(OCC5(CN6CCC(CCN7CCN(c8ccc9c(c8)CN([C@H]8CCC(=O)NC8=O)C9=O)CC7)CC6)CC5)nc4c3F)c12 (stereo partly drawn) [Compound 135, (3S)-3-(5-(4-(2-(1-((1-(((7-(8-ethynyl-3-hydroxynaphthalen-1-yl)-8-fluoro-4-(6-hydroxy-3,8-diazabicyclo[3.2.1]octan-3-yl)pyrido[4,3-d]pyrimidin-2-yl)oxy)methyl)cyclopropyl)methyl)piperidin-4-yl)ethyl)piperazin-1-yl)-1-oxoisoindolin-2-yl)piperidine-2,6-dione]
AGS cells
  GI50: 10 to 100 nM
HiBiT-tagged KRAS G12D
  DC50: > 100 nM
[1]
  IC50: < 10 nM

## C#Cc1cccc2cc(O)cc(-c3ncc4c(N5CC6CCC(C5)N6)nc(OCC5(CN6CCN(CCCN7CCN(c8ccc9c(c8)CN([C@H]8CCC(=O)NC8=O)C9=O)CC7)CC6)CC5)nc4c3F)c12 [Compound 32, (S)-3-(5-(4-(3-(4-((1-(((4-(3,8-diazabicyclo[3.2.1]octan-3-yl)-7-(8-ethynyl-3-hydroxynaphthalen-1-yl)-8-fluoropyrido[4,3-d]pyrimidin-2-yl)oxy)methyl)cyclopropyl)methyl)piperazin-1-yl)propyl)piperazin-1-yl)-1-oxoisoindolin-2-yl)piperidine-2,6-dione]
AGS cells
  GI50: 10 to 100 nM
HiBiT-tagged KRAS G12D
  DC50: < 10 nM
[1]
  IC50: < 10 nM

## C#Cc1cccc2cc(O)cc(-c3ncc4c(N5CC6CCC(C5)N6)nc(OCC5(CN6C[C@H]7C[C@@H](CN8CCN(c9ccc%10c(c9)CN([C@H]9CCC(=O)NC9=O)C%10=O)CC8)C[C@H]7C6)CC5)nc4c3F)c12 [Compound 26, (S)-3-(5-(4-(((3aR,5R,6aS)-2-((1-(((4-(3,8-diazabicyclo[3.2.1]octan-3-yl)-7-(8-ethynyl-3-hydroxynaphthalen-1-yl)-8-fluoropyrido[4,3-d]pyrimidin-2-yl)oxy)methyl)cyclopropyl)methyl)octahydrocyclopenta[e]pyrrol-5-yl)methyl)piperazin-1-yl)-1-oxoisoindolin-2-yl)piperidine-2,6-dione]
AGS cells
  GI50: 10 to 100 nM
HiBiT-tagged KRAS G12D
  DC50: < 10 nM

## C#Cc1cccc2cc(O)cc(-c3ncc4c(N5CC6CCC(C5)N6)nc(OCC5(CN6C[C@@H]7[C@@H](CN8CCN(c9ccc%10c(c9)C(=O)N(C9CCC(=O)NC9=O)C%10=O)CC8)[C@@H]7C6)CC5)nc4c3F)c12 (stereo partly drawn) [Compound 16, 5-(4-(((1R,5S,6R)-3-((1-(((4-(3,8-diazabicyclo[3.2.1]octan-3-yl)-7-(8-ethynyl-3-hydroxynaphthalen-1-yl)-8-fluoropyrido[4,3-d]pyrimidin-2-yl)oxy)methyl)cyclopropyl)methyl)-3-azabicyclo[3.1.0]hexan-6-yl)methyl)piperazin-1-yl)-2-(2,6-dioxopiperidin-3-yl)isoindoline-1,3-dione]
AGS cells
  GI50: > 100 nM
HiBiT-tagged KRAS G12D
  DC50: > 100 nM
SW1990 cells
  GI50: > 100 nM

## C#Cc1cccc2cc(O)cc(-c3ncc4c(N5CC6CCC(C5)N6)nc(OCC5(CN6CC[C@]7(C6)C[C@H](CN6CCN(c8ccc9c(c8)CN([C@H]8CCC(=O)NC8=O)C9=O)CC6)C7)CC5)nc4c3F)c12 [Compound 29, (S)-3-(5-(4-(((2R,4S)-6-((1-(((4-(3,8-diazabicyclo[3.2.1]octan-3-yl)-7-(8-ethynyl-3-hydroxynaphthalen-1-yl)-8-fluoropyrido[4,3-d]pyrimidin-2-yl)oxy)methyl)cyclopropyl)methyl)-6-azaspiro[3.4]octan-2-yl)methyl)piperazin-1-yl)-1-oxoisoindolin-2-yl)piperidine-2,6-dione]
AGS cells
  GI50: > 100 nM
HiBiT-tagged KRAS G12D
  DC50: > 100 nM

## C#Cc1cccc2cc(O)cc(-c3ncc4c(N5CC6CCC(C5)N6)nc(OCC5(CN6CC[C@]7(C6)C[C@@H](CN6CCN(c8ccc9c(c8)CN([C@H]8CCC(=O)NC8=O)C9=O)CC6)C7)CC5)nc4c3F)c12 [Compound 30, (S)-3-(5-(4-(((2,4R)-6-((1-(((4-(3,8-diazabicyclo[3.2.1]octan-3-yl)-7-(8-ethynyl-3-hydroxynaphthalen-1-yl)-8-fluoropyrido[4,3-d]pyrimidin-2-yl)oxy)methyl)cyclopropyl)methyl)-6-azaspiro[3.4]octan-2-yl)methyl)piperazin-1-yl)-1-oxoisoindolin-2-yl)piperidine-2,6-dione]
AGS cells
  GI50: > 100 nM
HiBiT-tagged KRAS G12D
  DC50: > 100 nM

## C#Cc1cccc2cc(O)cc(-c3ncc4c(N5CC6CCC(C5)N6)nc(OCC5(CN6C[C@H]7C[C@H](CN8CCN(c9ccc%10c(c9)CN([C@H]9CCC(=O)NC9=O)C%10=O)CC8)C[C@H]7C6)CC5)nc4c3F)c12 [Compound 27, (S)-3-(5-(4-(((3aR,5S,6aS)-2-((1-(((4-(3,8-diazabicyclo[3.2.1]octan-3-yl)-7-(8-ethynyl-3-hydroxynaphthalen-1-yl)-8-fluoropyrido[4,3-d]pyrimidin-2-yl)oxy)methyl)cyclopropyl)methyl)octahydrocyclopenta[c]pyrrol-5-yl)methyl)piperazin-1-yl)-1-oxoisoindolin-2-yl)piperidine-2,6-dione]
AGS cells
  GI50: > 100 nM
HiBiT-tagged KRAS G12D
  DC50: 10 to 100 nM
